The record followed here is patent US6660752B2, “2,6-Substituted chroman derivatives useful as beta-3 adrenoreceptor agonists” (Bayer Pharmaceuticals Corporation, priority 2001, dated 2003).

Structures are written as SMILES. Counter-ions that a name gives are not always drawn. Like-named read-outs stand apart in the source and are kept apart here.

As a reminder, the EC50 is the concentration needed to bring the measured effect to its halfway point.

For the assay, the target named is T1, human beta-3-adrenergic receptor (Homo sapiens, UniProt P13945).
T1 construct: stably express full-length human beta-3-adrenergic receptor; expressed in transfected cells; host or cells: Chinese hamster ovary (CHO) cells
T1 sequence (P13945 whole entry): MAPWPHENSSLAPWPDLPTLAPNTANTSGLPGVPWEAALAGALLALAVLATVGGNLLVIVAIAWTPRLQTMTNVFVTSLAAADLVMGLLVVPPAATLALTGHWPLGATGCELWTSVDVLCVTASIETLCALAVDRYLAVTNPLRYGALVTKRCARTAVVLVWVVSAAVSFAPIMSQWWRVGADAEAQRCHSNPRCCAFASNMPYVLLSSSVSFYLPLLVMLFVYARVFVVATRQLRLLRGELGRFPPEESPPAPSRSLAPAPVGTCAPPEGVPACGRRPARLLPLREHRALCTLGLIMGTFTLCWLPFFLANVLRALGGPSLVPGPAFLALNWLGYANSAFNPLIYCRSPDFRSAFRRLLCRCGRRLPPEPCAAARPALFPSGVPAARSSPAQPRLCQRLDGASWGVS
Put plainly: cAMP production (beta-3 agonist activity) in CHO cells stably expressing human beta-3-adrenergic receptor, cAMP SPA. The conditions noted are these: CHO cells expressing full-length human beta-3-adrenergic receptor, 30 min incubation, 10 μM to 3 nM. In kind it is cell-based. The procedure, abridged:
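CHO cells stably expressing full-length receptor treated 30 min at 37° C with compounds (10 μM to 3 nM, 3-fold dilutions) in KRP buffer pH 7.4 with […] IBMX and 1% DMSO. Lysed cells assayed for cAMP by SPA; EC50 derived from cAMP concentration-response curves.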

Setting [1] is: read-out: Beta-3 Agonistic Activity: Compounds with EC50 values ≦1 μM.
[2] abbreviates: read-out: Beta-3 Agonistic Activity: Compounds with EC50 values >1 μM.

Turning to `O=S(=O)(Nc1nc2ccccc2s1)c1ccc(-c2ccc3c(c2)CCC(CNC[C@H](O)c2cccnc2)O3)cc1` (stereo partly shown) [Example 276], under setting [1], the EC50 was ≤ 1000 nM. As for `O=C(O)c1ccc(-c2ccc3c(c2)CC[C@H](CNC[C@H](O)c2cccnc2)O3)cc1Oc1ccccc1` [Example 192, 4-[(2R)-2-({[(2R)-2-hydroxy-2-(3-pyridinyl)ethyl]amino}methyl)-3,4-dihydro-2H-chromen-6-yl]-2-(phenyloxy)benzoic Acid], under setting [1], the concentration giving a half-maximal response (EC50) is ≤ 1000 nM. Same read-out and setting: under `Nc1ccc([C@@H](O)CNC[C@H]2CCc3cc(C(=O)NCC(=O)O)ccc3O2)cn1` [Example 362, N-{[(2R)-2-({[(2R)-2-(6-amino-3-pyridinyl)-2-hydroxyethyl]amino}methyl)-3,4-dihydro-2H-chromen-6-yl]carbonyl}glycine] stands ≤ 1000 nM; under `NS(=O)(=O)c1ccc(-c2ccc3c(c2)CC[C@H](CNC[C@H](O)c2cccnc2)O3)cc1` [Example 325, 4-[(2R)-2-({[(2R)-2-hydroxy-2-(3-pyridinyl)ethyl]amino}methyl)-3,4-dihydro-2H-chromen-6-yl]benzenesulfonamide], ≤ 1000 nM. Still for that read-out and setting: in the case of `O=S(=O)(Nc1ncccn1)c1ccc(-c2ccc3c(c2)CC[C@H](CNC[C@H](O)c2cccnc2)O3)cc1` [Example 249A, 4-[(2R)-2-({[(2R)-2-hydroxy-2-(3-pyridinyl)ethyl]amino}methyl)-3,4-dihydro-2H-chromen-6-yl]-N-(2-pyrimidinyl)benzenesulfonamide] it was ≤ 1000 nM; in that of `Nc1ccc([C@@H](O)CNC[C@H]2CCc3cc(C(=O)NC4(C(=O)O)CC4)ccc3O2)cn1` [Example 366, 1-({[(2R)-2-({[(2R)-2-(6-amino-3-pyridinyl)-2-hydroxyethyl]amino}methyl)-3,4-dihydro-2H-chromen-6-yl]carbonyl}amino)cyclopropanecarboxylic acid], ≤ 1000 nM; in that of `O=C(O)c1ccc(-c2ccc3c(c2)CC[C@H](CNC[C@H](O)c2cccc(Cl)c2)O3)cc1` [Example 344, 4-[(2R)-2-({[(2R)-2-(3-chlorophenyl)-2-hydroxyethyl]amino}methyl)-3,4-dihydro-2H-chromen-6-yl]benzoic acid], ≤ 1000 nM. Consider `O=C(O)c1ccc(-c2ccc3c(c2)CC[C@H](CNC[C@@H](O)c2c(F)ccc(Cl)c2F)O3)cc1` [Example 348], for which the EC50 under setting [1] was ≤ 1000 nM. The same measure, in the same setting: under `O=C(O)c1ccc(-c2ccc3c(c2)CC[C@H](CNC[C@@H](O)c2cccc(Cl)c2F)O3)cc1` [Example 352] stands ≤ 1000 nM; under `CC(=O)Nc1ccc(-c2ccc3c(c2)CC[C@H](CNC[C@H](O)c2cccnc2)O3)nc1` [Example 323], ≤ 1000 nM. `CC(C)C(=O)NS(=O)(=O)c1ccc(-c2ccc3c(c2)CC[C@H](CNC[C@H](O)c2cccnc2)O3)cc1` [Example 290]: the EC50 under setting [1] was ≤ 1000 nM. With `O=C(NS(=O)(=O)c1ccc(-c2ccc3c(c2)CC[C@H](CNC[C@H](O)c2cccnc2)O3)cc1)C1CC1` [Example 285, N-(cyclopropylcarbonyl)-4-[(2R)-2-({[(2R)-2-hydroxy-2-(3-pyridinyl)ethyl]amino}methyl)-3,4-dihydro-2H-chromen-6-yl]benzenesulfonamide], the EC50 under setting [1] is ≤ 1000 nM. On to `Cc1ccc(C(=O)NS(=O)(=O)c2ccc(-c3ccc4c(c3)CC[C@H](CNC[C@H](O)c3cccnc3)O4)cc2)cc1` [Example 296], for which the EC50 under setting [1] is ≤ 1000 nM. As to `N#Cc1ccc(NS(=O)(=O)c2ccc(-c3ccc4c(c3)CC[C@H](CNC[C@H](O)c3cccnc3)O4)cc2OC(F)(F)F)cc1` [Example 262, N-(4-cyanophenyl)-4-[(2R)-2-({[(2R)-2-hydroxy-2-(3-pyridinyl)ethyl]amino}methyl)-3,4-dihydro-2H-chromen-6-yl]-2-(trifluoromethoxy)benzenesulfonamide], the EC50 under setting [1] was ≤ 1000 nM. Same read-out and setting: in the case of `Nc1ccc([C@@H](O)CNC[C@H]2CCc3cc(-c4cccc(C(=O)N5CCCC5)c4)ccc3O2)cn1` [Example 383] it was ≤ 1000 nM; in that of `O=C(Nc1ccc(Cl)cc1)NS(=O)(=O)c1cccc(-c2ccc3c(c2)CC[C@H](CNC[C@H](O)c2cccnc2)O3)c1` [Example 335], ≤ 1000 nM. On to `N#Cc1ccc(NS(=O)(=O)c2ccc(-c3ccc4c(c3)CC[C@H](CNC[C@H](O)c3cccnc3)O4)cc2)cc1` [Example 256], for which the EC50 under setting [1] was ≤ 1000 nM. Same read-out and setting: in the case of `CCOc1cc(-c2ccc3c(c2)CC[C@H](CNC[C@H](O)c2cccnc2)O3)ccc1C(=O)O` [Example 185, 2-ethoxy-4-[(2R)-2-({[(2R)-2-hydroxy-2-(3-pyridinyl)ethyl]amino}methyl)-3,4-dihydro-2H-chromen-6-yl]benzoic acid] it was ≤ 1000 nM. Same read-out and setting: in the case of `O=S(=O)(Nc1cnccc1C(F)(F)F)c1ccc(-c2ccc3c(c2)CC[C@H](CNC[C@H](O)c2cccnc2)O3)cc1` [Example 251] it was ≤ 1000 nM. In the case of `O=C(O)c1ccc(CCc2ccc3c(c2)CCC(CNC[C@H](O)c2cccnc2)O3)cc1` (stereo in doubt) [Example 215, 4-{2-[(2S)-2-({[(2R)-2-hydroxy-2-(3-pyridinyl)ethyl]amino}methyl)-3,4-dihydro-2H-chromen-6-yl]ethyl}benzoic Acid], the EC50 under setting [1] was ≤ 1000 nM. For `O[C@@H](CNC[C@H]1CCc2cc(-c3cccc4ccccc34)ccc2O1)c1cccnc1` [Example 54], under setting [1], the 50% effective concentration (EC50) was ≤ 1000 nM. As to `O=C(Nc1ccc(F)cc1)NS(=O)(=O)c1cccc(-c2ccc3c(c2)CC[C@H](CNC[C@H](O)c2cccnc2)O3)c1` [Example 333], the EC50 under setting [1] was ≤ 1000 nM. On the same count and under the same terms, in the case of `O[C@@H](CNC[C@H]1CCc2cc(-c3ccccc3C(F)(F)F)ccc2O1)c1cccnc1` [Example 40] it was ≤ 1000 nM; in that of `Cc1ccc(NC(=O)NS(=O)(=O)c2cccc(-c3ccc4c(c3)CC[C@H](CNC[C@H](O)c3cccnc3)O4)c2)cc1` [Example 324, 3-((1R)-1-hydroxy-2-{[((2R)-6-{3-[({[(4-methylphenyl)amino]carbonyl}amino)sulfonyl]phenyl}-3,4-dihydro-2H-chromen-2-yl)methyl]amino}ethyl)pyridine Hydrochloride], ≤ 1000 nM. As for `Nc1ccc([C@@H](O)CNC[C@H]2CCc3cc(C(=O)N4CCCC[C@H]4C(=O)O)ccc3O2)cn1` [Example 364], under setting [2], the EC50 was > 1000 nM. For the compound `Cc1ccc(-c2cc(-c3ccc4c(c3)CC[C@H](CNC[C@H](O)c3cccnc3)O4)ccc2C(=O)O)cc1` [Example 205, 5-[(2R)-2-({[(2R)-2-hydroxy-2-(3-pyridinyl)ethyl]amino}methyl)-3,4-dihydro-2H-chromen-6-yl]-4′-methyl-1,1′-biphenyl-2-carboxylic Acid], the EC50 under setting [1] was ≤ 1000 nM. As to `COc1ccc(-c2ccc3c(c2)CC[C@H](CNC[C@H](O)c2cccnc2)O3)cc1S(=O)(=O)Nc1ccc(C(C)=O)cc1` [Example 280], the EC50 under setting [1] is ≤ 1000 nM.

Turning to `O=C(Nc1cccc(F)c1)NS(=O)(=O)c1ccc(-c2ccc3c(c2)CC[C@H](CNC[C@H](O)c2cccnc2)O3)cc1` [Example 338], under setting [1], the EC50 is ≤ 1000 nM. With `COc1cc(OC)nc(NS(=O)(=O)c2cc(-c3ccc4c(c3)CC[C@H](CNC[C@H](O)c3cccnc3)O4)ccc2OC)n1` [Example 270], the EC50 under setting [1] is ≤ 1000 nM. Take `O=C(NS(=O)(=O)c1cccc(-c2ccc3c(c2)CCC(CNC[C@H](O)c2cccnc2)O3)c1)c1ccc(Cl)cc1` (stereo partly shown) [Example 301]: the EC50 under setting [1] is ≤ 1000 nM.

Consider `O=S(=O)(Nc1ncccn1)c1cccc(-c2ccc3c(c2)CC[C@H](CNC[C@H](O)c2cccnc2)O3)c1` [Example 261, 3-[(2R)-2-({[(2R)-2-hydroxy-2-(3-pyridinyl)ethyl]amino}methyl)-3,4-dihydro-2H-chromen-6-yl]-N-(2-pyrimidinyl)benzenesulfonamide], for which the EC50 under setting [1] is ≤ 1000 nM. Turning to `CCC(CC)C(=O)NS(=O)(=O)c1ccc(-c2ccc3c(c2)CC[C@H](CNC[C@H](O)c2cccnc2)O3)cc1` [Example 289], under setting [1], the EC50 was ≤ 1000 nM. With `CC(C)Oc1cc(-c2ccc3c(c2)CC[C@H](CNC[C@H](O)c2cccnc2)O3)ccc1C(=O)O` [Example 188, 4-[(2R)-2-({[(2R)-2-hydroxy-2-(3-pyridinyl)ethyl]amino}methyl)-3,4-dihydro-2H-chromen-6-yl]-2-isopropoxybenzoic acid], the EC50 under setting [1] was ≤ 1000 nM. Turning to `O[C@@H](CNC[C@H]1CCc2cc(-c3ccc(Cl)c(Cl)c3)ccc2O1)c1cccnc1` [Example 39, (1R)-2-({[(2R)-6-(3,4-dichlorophenyl)-3,4-dihydro-2H-chromen-2-yl]methyl}amino)-1-(3-pyridinyl)ethanol], the EC50 under setting [2] is > 1000 nM. For the compound `O[C@@H](CNC[C@H]1CCc2cc(-c3ccc(F)cc3)ccc2O1)c1cccnc1` [Example 48], the half-maximal effective concentration (EC50) under setting [1] was ≤ 1000 nM. Turning to `O=C(Nc1ccc(Cl)cc1)NS(=O)(=O)c1ccc(-c2ccc3c(c2)CC[C@H](CNC[C@H](O)c2cccnc2)O3)cc1` [Example 340], the EC50 under setting [1] is ≤ 1000 nM. The same measure, in the same setting: under `Cc1ccnc(NS(=O)(=O)c2ccc(-c3ccc4c(c3)CC[C@H](CNC[C@H](O)c3cccnc3)O4)cc2)n1` [Example 268, 4-[(2R)-2-({[(2R)-2-hydroxy-2-(3-pyridinyl)ethyl]amino}methyl)-3,4-dihydro-2H-chromen-6-yl]-N-(4-methyl-2-pyrimidinyl)benzenesulfonamide] stands ≤ 1000 nM. As to `O=S(=O)(Nc1cccnc1)c1cccc(-c2ccc3c(c2)CC[C@H](CNC[C@H](O)c2cccnc2)O3)c1` [Example 260], under setting [1], the EC50 is ≤ 1000 nM. As for `CCC(=O)NS(=O)(=O)c1cccc(-c2ccc3c(c2)CC[C@H](CNC[C@H](O)c2cccnc2)O3)c1` [Example 305], the EC50 under setting [1] is ≤ 1000 nM.

As for `Nc1ccc(-c2ccc3c(c2)CC[C@H](CNC[C@H](O)c2cccnc2)O3)nc1` [Example 317, (1R)-2-({[(2R)-6-(5-amino-2-pyridinyl)-3,4-dihydro-2H-chromen-2-yl]methyl}amino)-1-(3-pyridinyl)ethanol Tetrahydrochloride], the EC50 under setting [1] was ≤ 1000 nM.
